# In the supplement of paper PMC13380429:
# How the values were obtained:
# Settings in all cases: 72 h
# Caco-2 [1] = assay: cell viability relative to DMSO; higher = less toxic
# Calu-3 [2] = assay: as above
# HepG2 [3] = assay: as above
# U2OS [4] = assay: as above
# Vero E6 [5] = assay: as above
# Calu-3 [6] = assay: relative viability EC50 (midpoint between 100% and the lowest measured viability); higher = less toxic
# HepG2 [7] = assay: as above
# U2OS [8] = assay: as above
# Vero E6 [9] = assay: as above
# Caco-2 [10] = assay: drug sensitivity score (DSS) for viability; higher = more toxic; extreme values may be limits of the assay
# Calu-3 [11] = assay: as above
# HepG2 [12] = assay: as above
# U2OS [13] = assay: as above
# Vero E6 [14] = assay: as above
# Caco-2 [15] = assay: relative viability EC50 (midpoint between 100% and the lowest measured viability); higher = less toxic
Compound,cell viability (Caco-2 [1]; 1 nM) [%],cell viability (Caco-2 [1]; 10 nM) [%],cell viability (Caco-2 [1]; 100 nM) [%],cell viability (Caco-2 [1]; 1000 nM) [%],cell viability (Caco-2 [1]; 10000 nM) [%],cell viability (Calu-3 [2]; 1 nM) [%],cell viability (Calu-3 [2]; 10 nM) [%],cell viability (Calu-3 [2]; 100 nM) [%],cell viability (Calu-3 [2]; 1000 nM) [%],cell viability (Calu-3 [2]; 10000 nM) [%],cell viability (HepG2 [3]; 1 nM) [%],cell viability (HepG2 [3]; 10 nM) [%],cell viability (HepG2 [3]; 100 nM) [%],cell viability (HepG2 [3]; 1000 nM) [%],cell viability (HepG2 [3]; 10000 nM) [%],cell viability (U2OS [4]; 1 nM) [%],cell viability (U2OS [4]; 10 nM) [%],cell viability (U2OS [4]; 100 nM) [%],cell viability (U2OS [4]; 1000 nM) [%],cell viability (U2OS [4]; 10000 nM) [%],cell viability (Vero E6 [5]; 1 nM) [%],cell viability (Vero E6 [5]; 10 nM) [%],cell viability (Vero E6 [5]; 100 nM) [%],cell viability (Vero E6 [5]; 1000 nM) [%],cell viability (Vero E6 [5]; 10000 nM) [%],relative viability EC50 (Calu-3 [6]) [µM],relative viability EC50 (HepG2 [7]) [µM],relative viability EC50 (U2OS [8]) [µM],relative viability EC50 (Vero E6 [9]) [µM],drug sensitivity score (Caco-2 [10]),drug sensitivity score (Calu-3 [11]),drug sensitivity score (HepG2 [12]),drug sensitivity score (U2OS [13]),drug sensitivity score (Vero E6 [14]),relative viability EC50 (Caco-2 [15]) [µM]
CN1CCN(c2ccc(OC(F)(F)F)c(Nc3ncc4c(n3)-c3c(c(C(N)=O)nn3CCO)CC4)c2)CC1,104,94.9,77.3,52,62.3,100,105,78.7,84.9,84.7,105,95,70.4,16.7,15.8,108,103,98.2,46.5,41.3,102,112,99.7,52.4,48.3,> 10,0.139,0.394,0.395,11,5.1,18.8,10,8.8,–
CON(C)C(=O)[C@H](O)[C@H](Cc1ccccc1)NC(=O)c1cc2cc(Cl)ccc2[nH]1,91.9,105,92.9,100,90.4,88.7,109,92.7,106,118,105,95.3,103,90.5,90.1,99.3,102,98.6,101,95.9,106,101,103,94.2,101,> 10,> 10,> 10,> 10,0,0,0,0,0,> 10
CO[C@H]1CC[C@@H](C(=O)c2ccc3nc4c(cc3c2)CCCO4)CC1,90.8,90.3,104,99.2,92.7,–,–,–,–,–,99.5,107,104,102,104,99.8,93.8,104,97.8,101,102,103,93.1,99,100,–,> 10,> 10,> 10,0,–,0,0,0,> 10
COc1cc(NC(=O)c2ccc(-c3ccc(Cl)cc3)o2)cc(OC)c1,108,98.9,107,102,98.1,121,103,109,101,99.3,105,109,91.9,114,102,–,–,–,–,–,94.5,101,97.2,97.6,101,> 10,> 10,–,> 10,0,0,0,–,0,> 10
COc1ccc(Cl)c(Nc2ncnc3cc(OCC4CCN(C)CC4)c(OC)cc23)c1,93,108,99.1,89.9,68.3,94.5,102,89.7,75,28.5,99.1,105,90.6,96.6,87.7,104,97.2,103,95.8,77.7,95.5,99.3,89.7,76.6,27.3,1.42,> 10,> 10,1.49,2.9,6.7,0,1.4,6.7,–
C[C@@H]1CN(Cc2ccc(F)cc2)CCN1C(=O)COc1ccc(Cl)cc1NC(N)=O,98.2,95.7,92.9,81.3,66.6,97.1,104,98.1,104,85,93.3,101,87.7,51.9,19.1,103,96.1,99.3,95,72.8,103,113,93.3,104,93,> 10,0.635,–,> 10,3.6,0.1,10.8,1.9,0,–
Cn1cc(C(F)(F)F)nc1-c1ccc(OCC(O)CNCCOc2ccc(O)c(C(N)=O)c2)cc1 (stereo not drawn),102,96.6,102,98.7,87.4,–,–,–,–,–,111,97,122,94.3,114,98.7,100,94,101,98.1,104,96.4,102,90.1,95.7,–,> 10,> 10,> 10,0.2,–,0,0,0,> 10
O=C(NC1(c2ccccc2)CC1)c1c(CN2CCC(N3CCCCC3)CC2)c(-c2cccc(C(F)(F)F)c2)nc2cc(Br)ccc12,95.4,88.3,112,98.8,55.2,97.1,90.2,96,85.8,1.2,93.6,101,104,102,45.4,98.5,95.1,101,96,15.7,93.3,98.3,102,99.3,38.4,2.02,3.4,2.81,3.09,2.5,7.8,2.7,5.2,3.4,–
O=C1NC(=O)/C(=C/c2ccc(-c3ccc(F)cc3O)o2)S1,94,103,96.3,105,72.5,116,109,102,98.2,77,96.2,96.2,95.9,96.6,106,103,101,91,104,91.2,102,100,99.3,100,81.2,> 10,> 10,> 10,> 10,0.9,1,0,0,0.5,–
O=c1cc(-c2cccc3c2Sc2ccccc2S3)oc(N2CCOCC2)c1,103,102,98.2,93.3,67.8,100,98.9,98.2,104,106,104,102,93.5,108,85.9,99.8,99.6,102,100,93.3,97.5,102,101,106,83.3,> 10,> 10,> 10,> 10,2.5,0,0.1,0,0.2,–
Nc1nccc2c1ncn2[C@@H]1O[C@H](CO)[C@@H](O)[C@@H]1O [3-deazaadenosine],89.8,101,97.9,89.2,97,–,–,–,–,–,97.9,103,95.6,97.3,96.1,99.9,99.4,97.7,103,95.8,87.4,100,90.8,92.8,95.1,–,> 10,> 10,> 10,0,–,0,0,0,> 10
CCC(=O)N[C@@H]1Cc2ccccc2[C@H](c2ccccc2)C1 [4-P-PDOT],103,95.4,100,95.1,94.4,105,94.6,104,114,102,106,111,99,88.9,108,–,–,–,–,–,95.9,97.4,100,96.1,98.5,> 10,> 10,–,> 10,0,0,0,–,0,> 10
O=c1cccc2n1C[C@H]1C[C@@H]2CN(CCN2C[C@@H]3C[C@H](C2)c2cccc(=O)n2C3)C1 [CC4],98.2,100,91.4,93.1,98.3,87.1,104,101,119,104,91.3,91.9,93.9,97.4,93.4,–,–,–,–,–,97.4,94.6,98.8,92.8,101,> 10,> 10,–,> 10,0,0,0,–,0,> 10
Cc1sc2c(c1C)C(c1ccc(Cl)cc1)=N[C@@H](CC(N)=O)c1nnc(C)n1-2 [CPI-203],100,95.8,88.9,76.3,70.5,98.3,105,100,78.3,60,91.8,94.3,81.3,40.2,35.2,93.9,94.4,86.1,57.9,43.6,96.4,93.9,73.7,15.4,11,–,0.186,0.302,0.172,4.7,4.7,13.2,9.3,18.6,–
Cc1noc2c1-c1ccccc1C(c1ccc(Cl)cc1)=N[C@H]2CC(N)=O [CPI-0610],104,108,106,94.5,80.6,103,99.7,105,90,64.7,109,111,101,75.2,49.4,105,108,97.3,84.1,47.6,111,108,88.4,38.5,16.2,–,1.02,1.42,0.449,1.2,3.2,5.9,5.1,13,> 10
